Read-outs that look alike come from different tables or passages of the source.
Key:
[1] = target: T1, p75^NTR receptors (PC12 cells) (Rattus norvegicus, UniProt P07174); test: Basic screening assay: binding of 125I-BDNF to PC12 cells; conditions: read-out: BDNF Activity % Maximal Binding
T1 construct: endogenous in cells; host or cells: PC12 cells
T1 sequence (P07174 30-425): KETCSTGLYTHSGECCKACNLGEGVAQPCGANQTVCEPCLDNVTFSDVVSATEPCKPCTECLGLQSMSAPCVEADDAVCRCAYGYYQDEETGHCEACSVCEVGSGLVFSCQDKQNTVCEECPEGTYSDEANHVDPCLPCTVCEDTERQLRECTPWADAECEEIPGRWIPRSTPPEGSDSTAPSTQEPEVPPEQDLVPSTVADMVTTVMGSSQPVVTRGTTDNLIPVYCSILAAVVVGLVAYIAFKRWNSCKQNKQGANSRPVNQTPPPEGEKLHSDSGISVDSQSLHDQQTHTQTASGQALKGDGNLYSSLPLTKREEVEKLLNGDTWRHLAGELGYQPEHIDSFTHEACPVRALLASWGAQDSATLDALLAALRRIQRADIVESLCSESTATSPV
T1 sequence (P23560 129-247 partner): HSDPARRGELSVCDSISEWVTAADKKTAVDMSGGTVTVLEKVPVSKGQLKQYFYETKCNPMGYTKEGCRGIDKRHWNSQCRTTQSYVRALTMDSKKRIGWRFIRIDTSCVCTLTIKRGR
Description: (§1) The compounds were screened for effects on binding of ^125I-BDNF or ^125I-NGF to PC12 cells (p75^NTR receptors), and those that inhibited binding were further tested to determine the EC50 for this inhibition.
(§2) PC12 cells were cultured and prepared for binding assays as described in Example 1.
(§3) Lypophilized Peprotech human recombinant BDNF (Cedarlane Laboratories, Toronto, Canada, cat. # PE 450-02-10) was reconstituted under sterile conditions to 3.5 μM in sterile HKR/1%BSA, and either used immediately or stored in aliquots of 20 μl at −80° C. Immediately prior to use, a 15 nM (30×) solution of ^125I-BDNF or ^125I-NGF was prepared in HKR buffer, and was used at 0.5 nM final concentration.
(§4) Test Compounds were dissolved to 10 mM in DMSO, and those that were not initially soluble were warmed to 40-50° C. and vortexed. Those compounds that were still not in solution were reported as such. Compounds were then stored in this form at −20° C. until use. Immediately before experiments, 100 mM compounds were diluted to 10 mM in DMSO (1:10), followed by a further dilution to 1 mM (1:10) with distilled water, and a further dilution to 500 μM (1:1) with HKR.
(§5) Assays to determine maximum binding (Bmax), non-specific binding (NSB), and binding in the presence of each test compound (e.g., x, y) were performed at least in duplicate. In a total volume of 300 μL, 4×10^6 PC12 cells were incubated, rotating for 2 h at 4° C. with the following:
(§6) At the conclusion of the binding reaction, 100 μL aliquots of the reaction mixtures were carefully layered over 200 μL of a 10% glycerol solution in a 0.4 mL tube, and subjected to centrifugation in a microcentrifuge for 2 minutes at half maximum speed. The cell pellets containing the bound ^125I-BDNF or ^125I-NGF were then measured using a gamma counter. The mean values of the replicates were then calculated to determine the value for maximum binding (Bmax) and nonspecific binding (NSB), and binding in the presence of test compound at 50 μM (Bx). Specific binding (SB) was measured by subtracting the NSB from the Bmax.

[2] = system: p75^NTR receptors (PC12 cells); test: Basic screening assay: binding of 125I-NGF to PC12 cells; conditions: test compound 50 μM, 0.5 nM 125I-NGF, PC12 cells, 2 h at 4° C., specific binding as percent of control
Description: as §1, §2
Lyophilized Serotec mouse 2.5S NGF (Cedarlane Laboratories, Toronto, Canada, cat. # PMP 04Z) was reconstituted under sterile conditions to 1 mg/mL (38 μM) in sterile 0.2% acetic acid, and 100 μL or 50 μL aliquots were stored frozen at −80° C.
as §3, §4, §5
as §6, with “Bmax. Specific binding in the presence of the test compound (SBx) was determined by subtracting the NSB from the Bx for each test compound; and each SBx was divided by SB and multiplied by 100 to give the specific binding in the presence of the compound as a percent of control specific binding.” for “Bmax.”

[3] = Table 1, test compound 50 μM, 0.5 nM 125I-BDNF, PC12 cells, 2 h at 4° C., specific binding as percent of control
[4] = Table 2, test compound 50 μM, 0.5 nM 125I-BDNF, PC12 cells, 2 h at 4° C., specific binding as percent of control

| Compound | activity at 50 µM [1, 3] [%] | NGF Activity % Maximal Binding ([2]; Table 1) | activity at 50 µM [1] [%] | NGF Activity % Maximal Binding ([2]; Table 2) | activity at 50 µM [1, 4] [%] |
| --- | --- | --- | --- | --- | --- |
| COC(=O)CN1C(=O)S/C(=C\c2ccc(-c3ccc([N+](=O)[O-])cc3)o2)C1=O [Compound 50, {5-[5-(4-Nitrophenyl)furan-2-ylmethylene]-2,4-dioxo-thiazolidin-3-yl}-acetic acid methyl ester] | 30 to 40 | * (50 < *) | – | – | – |
| O=C1NC(=S)S/C1=C/c1ccc(-c2ccc(Cl)c([N+](=O)[O-])c2)o1 [Compound 51, 5-[5-(4-Chloro-3-nitrophenyl)furan-2-ylmethylene]-2-thioxo-thiazolidin-4-one] | 30 to 40 | * (50 < *) | – | – | – |
| CCCC(C(=O)O)N1C(=O)C(=Cc2ccc(-c3ccc([N+](=O)[O-])cc3)o2)SC1=S (stereo not shown) [Compound 52, 2-{5-[5-(4-Nitrophenyl)furan-2-ylmethylene]-4-oxo-2-thioxo-thiazolidin-3-yl}-pentanoic acid] | 30 to 40 | * (50 < *) | – | – | – |
| Cc1cc([N+](=O)[O-])ccc1-c1ccc(/C=C2/C(=O)NC(=O)N(C)C2=O)o1 [Compound 53, 1-Methyl-5-[5-(2-methyl-4-nitrophenyl)furan-2-ylmethylene]-pyrimidine-2,4,6-trione] | – | * (50 < *) | 30 to 40 | – | – |
| CCOC(=O)c1ccc(-c2ccc(/C=C3/NC(=O)N(c4ccccc4)C3=O)o2)cc1 [Compound 54, 4-[5-(2,5-Dioxo-1-phenyl-imidazolidin-4-ylidenemethyl)furan-2-yl]benzoic acid ethyl ester] | 30 to 40 | * (50 < *) | – | – | – |
| CCN1C(=O)/C(=C/c2ccc(-c3ccc([N+](=O)[O-])cc3)o2)NC1=S [Compound 55, 3-Ethyl-5-[5-(4-nitrophenyl)furan-2-ylmethylene]-2-thioxo-imidazolidin-4-one] | 30 to 40 | * (50 < *) | – | – | – |
| COc1cc([N+](=O)[O-])ccc1-c1ccc(C=C2C(=O)ON=C2c2ccccc2)o1 [Compound 56, 4-[5-(2-Methoxy-4-nitrophenyl)furan-2-ylmethylene]-3-phenyl-4H-isoxazol-5-one] | 40 to 50 | * (50 < *) | – | – | – |
| CCOC(=O)c1ccc(N2NC(=O)/C(=C/c3ccc(-c4cccc(C(=O)O)c4)o3)C2=O)cc1 [Compound 57, 3-{5-[3,5-Dioxo-1-phenyl-(4-ethyl ester)-pyrazolidin-4-ylidenemethyl]furan-2-yl}benzoic acid] | 40 to 50 | * (50 < *) | – | – | – |
| CCN1C(=O)S/C(=C/c2ccc(-c3ccc([N+](=O)[O-])cc3OC)o2)C1=O [Compound 58, 3-Ethyl-5-[5-(2-methoxy-4-nitrophenyl)furan-2-ylmethylene]-thiazolidine-2,4-dione] | 40 to 50 | * (50 < *) | – | – | – |
| O=C1C(=Cc2ccc(-c3ccc([N+](=O)[O-])cc3)o2)SC(=S)N1Cc1cccnc1 [Compound 59, 5-[5-(4-Nitrophenyl)furan-2-ylmethylene]-3-pyridin-3-ylmethyl-2-thioxo-thiazolidin-4-one] | 40 to 50 | * (50 < *) | – | – | – |
| COc1cc([N+](=O)[O-])ccc1-c1ccc(/C=C2/SC(=S)N(C)C2=O)o1 [Compound 60, 5-[5-(2-Methoxy-4-nitrophenyl)furan-2-ylmethylene]-3-methyl-2-thioxo-thiazolidin-4-one] | 40 to 50 | * (50 < *) | – | – | – |
| CCOC(=O)CN1C(=O)S/C(=C\c2ccc(-c3ccc([N+](=O)[O-])cc3C)o2)C1=O [Compound 61, {5-[5-(2-Methyl-4-nitrophenyl)furan-2-ylmethylene]-2,4-dioxo-thiazolidin-3-yl}-acetic acid ethyl ester] | 40 to 50 | * (50 < *) | – | – | – |
| CCCSC1=NC(=Cc2ccc(-c3ccc([N+](=O)[O-])cc3Cl)o2)C(=O)S1 [Compound 62, 4-[5-(2-Chloro-4-nitrophenyl)furan-2-ylmethylene]-2-propylsulfanyl-4H-thiazol-5-one] | 40 to 50 | * (50 < *) | – | – | – |
| CCOC(=O)c1ccc(-c2ccc(/C=C3/C(=O)NN(c4cccc(C)c4)C3=O)o2)cc1 [Compound 63, 4-[5-(3,5-Dioxo-1-m-tolyl-pyrazolidin-4-ylidenemethyl)furan-2-yl]benzoic acid ethyl ester] | 40 to 50 | * (50 < *) | – | – | – |
| COC(=O)C(C)N1C(=O)S/C(=C/c2ccc(-c3ccc(C)c([N+](=O)[O-])c3)o2)C1=O (stereo not shown) [Compound 64, 2-{5-[5-(4-Methyl-3-nitrophenyl)furan-2-ylmethylene]-2,4-dioxo-thiazolidin-3-yl}-propionic acid methyl ester] | 40 to 50 | * (50 < *) | – | – | – |
| Cc1cc(C(=O)O)ccc1-c1ccc(/C=C2\C(=O)NC(=O)N(c3ccccc3F)C2=O)o1 [Compound 66, 4-{5-[1-(2-Fluorophenyl)-2,4,6-trioxo-tetrahydro-pyrimidin-5-ylidenemethyl]furan-2-yl}-3-methylbenzoic acid] | – | – | 0 to 10 | XXX (20 < XXX < 30) | – |
| COC(=O)CN1C(=O)S/C(=C/c2ccc(-c3ccc(C(=O)O)c(Cl)c3)o2)C1=O [Compound 67, 2-Chloro-4-[5-(3-methoxycarbonylmethyl-2,4-dioxo-thiazolidin-5-ylidenemethyl)furan-2-yl]benzoic acid] | – | – | – | XX (30 < XX < 40) | 0 to 10 |
| CCOC(=O)c1ccc(-c2ccc(/C=C3/SC(=S)N(CC(=O)O)C3=O)o2)cc1 [Compound 68, 4-[5-(3-Carboxymethyl-4-oxo-2-thioxo-thiazolidin-5-ylidenemethyl)furan-2-yl]benzoic acid ethyl ester] | – | – | – | XX (30 < XX < 40) | 0 to 10 |
| COC(=O)c1cccc(-c2ccc(/C=C3/SC(=S)N(CC(=O)O)C3=O)o2)c1 [Compound 69, 3-[5-(3-Carboxymethyl-4-oxo-2-thioxo-thiazolidin-5-ylidenemethyl)furan-2-yl]benzoic acid methyl ester] | – | – | – | XX (30 < XX < 40) | 0 to 10 |
| O=C1NC(=S)N(c2ccc(F)cc2)C(=O)/C1=C\c1ccc(-c2cccc([N+](=O)[O-])c2)o1 [Compound 70, 1-(4-Fluorophenyl)-5-[5-(3-nitrophenyl)furan-2-ylmethylene]-2-thioxo-dihydro-pyrimidine-4,6-dione] | – | – | 0 to 10 | X (40 < X < 50) | – |

From patent US20050282840A1, “Methods of modulating neurotrophin-mediated activity” (PainCeptor Pharma Corporation, priority 2004, published 2005)
